In brackets after ≈: the same amount, converted by molar mass. Activity calls are given as the source filed them. No cut-off for these calls is given here.
Columns and labels:
[1] = biological target: T1, Histone-lysine N-methyltransferase EHMT2 (Homo sapiens, UniProt Q96KQ7); experiment: Inhibition of N-terminal GST-tagged human recombinant G9a (785 to 1210 residues) expressed in baculovirus infected Sf9 cells incubated for 1 hr by AlphaLISA analysis
T1 sequence (Q96KQ7 whole entry): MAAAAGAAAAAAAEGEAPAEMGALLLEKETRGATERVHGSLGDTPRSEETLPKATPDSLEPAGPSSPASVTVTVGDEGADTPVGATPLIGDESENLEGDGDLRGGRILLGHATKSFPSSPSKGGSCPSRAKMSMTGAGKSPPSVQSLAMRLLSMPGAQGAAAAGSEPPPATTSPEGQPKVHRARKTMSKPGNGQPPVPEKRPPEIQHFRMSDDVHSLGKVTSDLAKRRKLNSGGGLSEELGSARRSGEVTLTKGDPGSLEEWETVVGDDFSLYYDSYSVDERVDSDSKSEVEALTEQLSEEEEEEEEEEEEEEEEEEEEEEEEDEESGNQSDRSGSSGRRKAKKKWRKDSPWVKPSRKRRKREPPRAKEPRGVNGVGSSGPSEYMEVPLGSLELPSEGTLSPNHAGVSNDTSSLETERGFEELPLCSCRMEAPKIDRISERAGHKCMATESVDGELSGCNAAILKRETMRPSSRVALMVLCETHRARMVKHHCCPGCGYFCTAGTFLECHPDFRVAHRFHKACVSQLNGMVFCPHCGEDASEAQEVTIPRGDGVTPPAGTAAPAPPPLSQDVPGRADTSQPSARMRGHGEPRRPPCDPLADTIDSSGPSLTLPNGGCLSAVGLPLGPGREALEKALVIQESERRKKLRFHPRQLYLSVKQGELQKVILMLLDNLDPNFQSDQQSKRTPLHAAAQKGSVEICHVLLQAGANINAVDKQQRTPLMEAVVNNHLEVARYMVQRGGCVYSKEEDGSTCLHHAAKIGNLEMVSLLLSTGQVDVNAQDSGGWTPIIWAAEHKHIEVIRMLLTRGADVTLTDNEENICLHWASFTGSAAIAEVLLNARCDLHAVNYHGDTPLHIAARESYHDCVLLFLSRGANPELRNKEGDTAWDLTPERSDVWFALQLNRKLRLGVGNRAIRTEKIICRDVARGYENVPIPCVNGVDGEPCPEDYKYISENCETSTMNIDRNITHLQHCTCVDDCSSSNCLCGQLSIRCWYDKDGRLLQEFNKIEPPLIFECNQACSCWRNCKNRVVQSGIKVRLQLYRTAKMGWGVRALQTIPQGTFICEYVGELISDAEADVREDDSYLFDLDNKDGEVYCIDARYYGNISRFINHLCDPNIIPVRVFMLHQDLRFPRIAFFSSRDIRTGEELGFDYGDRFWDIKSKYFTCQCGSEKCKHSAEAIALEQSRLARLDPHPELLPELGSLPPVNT

[2] = test system: MOLT-4; experiment: Antiproliferative activity against human MOLT-4 cells assessed as inhibition of cell growth with replenishment of medium with compound on day 4 and 7 and measured after 12 days by ATPlite assay; format: functional; settings: MOLT-4, 288 h, time 12 day
[3] = Microsomal stability in human liver microsomes assessed as parent compound remaining after 30 mins in presence of NADPH by LC -MS/MS analysis; format: ADME, Microsome; settings: read-out: Stability
[4] = Microsomal stability in mouse liver microsomes assessed as parent compound remaining after 30 mins in presence of NADPH by LC -MS/MS analysis; format: ADME, Microsome; settings: read-out: Stability
[5] = test system: MOLT-4; experiment: Downregulation of H3K9 dimethylation in human MOLT-4 cells at 0.1 uM by Western blot analysis; format: functional, cell-based
[6] = Aqueous solubility of compound at pH 7.4 measured for 1 hr by UV-plate reader analysis; format: physicochemical; settings: buffer
[7] = test system: MOLT-4; experiment: Antiproliferative activity against human MOLT-4 cells assessed as inhibition of cell growth with replenishment of medium with compound on day 4 and 7 by ATPlite assay; format: functional
[8] = Permeability of compound by PAMPA assay; format: ADME; settings: for Papp: read-out: permeability
[9] = biological target: T2, Histone-lysine N-methyltransferase EHMT1 (Homo sapiens, UniProt Q9H9B1); experiment: Inhibition of GLP (unknown origin)
T2 sequence (Q9H9B1 whole entry): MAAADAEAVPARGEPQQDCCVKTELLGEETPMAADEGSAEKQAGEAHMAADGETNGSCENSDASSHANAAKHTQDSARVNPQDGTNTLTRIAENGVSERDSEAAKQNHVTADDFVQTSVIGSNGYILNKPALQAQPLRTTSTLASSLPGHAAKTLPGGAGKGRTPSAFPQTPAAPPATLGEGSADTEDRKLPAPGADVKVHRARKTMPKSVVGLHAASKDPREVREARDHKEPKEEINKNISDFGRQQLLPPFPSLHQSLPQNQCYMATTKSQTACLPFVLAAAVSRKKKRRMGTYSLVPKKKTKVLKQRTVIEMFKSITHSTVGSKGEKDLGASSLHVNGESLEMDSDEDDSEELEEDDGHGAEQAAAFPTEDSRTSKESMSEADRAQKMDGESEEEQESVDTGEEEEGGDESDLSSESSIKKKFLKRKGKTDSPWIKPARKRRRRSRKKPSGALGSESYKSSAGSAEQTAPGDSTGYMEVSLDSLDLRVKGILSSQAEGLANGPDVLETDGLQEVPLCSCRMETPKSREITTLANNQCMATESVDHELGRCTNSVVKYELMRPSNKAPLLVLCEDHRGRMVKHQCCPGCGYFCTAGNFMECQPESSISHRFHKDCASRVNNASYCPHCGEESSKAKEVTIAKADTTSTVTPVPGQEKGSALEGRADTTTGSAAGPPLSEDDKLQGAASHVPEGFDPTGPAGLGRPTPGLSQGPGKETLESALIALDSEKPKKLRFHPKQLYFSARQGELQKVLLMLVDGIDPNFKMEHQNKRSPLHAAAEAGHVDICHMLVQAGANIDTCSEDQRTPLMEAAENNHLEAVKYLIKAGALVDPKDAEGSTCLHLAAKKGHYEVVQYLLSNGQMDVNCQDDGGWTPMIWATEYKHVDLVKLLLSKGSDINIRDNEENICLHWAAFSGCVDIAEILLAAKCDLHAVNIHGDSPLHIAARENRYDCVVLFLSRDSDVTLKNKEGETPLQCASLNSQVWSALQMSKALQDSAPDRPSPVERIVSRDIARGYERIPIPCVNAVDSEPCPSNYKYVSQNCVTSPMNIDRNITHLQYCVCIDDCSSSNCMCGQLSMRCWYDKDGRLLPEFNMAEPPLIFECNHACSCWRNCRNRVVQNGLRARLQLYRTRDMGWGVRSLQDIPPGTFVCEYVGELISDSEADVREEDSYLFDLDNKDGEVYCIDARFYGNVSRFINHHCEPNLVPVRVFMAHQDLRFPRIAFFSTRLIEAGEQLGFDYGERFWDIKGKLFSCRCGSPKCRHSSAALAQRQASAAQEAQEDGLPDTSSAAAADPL

[10] = biological target: T1, Histone-lysine N-methyltransferase EHMT2; experiment: Inhibition of G9a (unknown origin)
[11] = Half life in ICR mouse at 25 mg/kg, ip; format: ADME, organism-based; settings: in vivo
[12] = Cmax in ICR mouse at 25 mg/kg, ip; format: ADME, organism-based; design: dose 25 mg/kg, route ip; settings: in vivo
[13] = Tmax in ICR mouse at 25 mg/kg, ip; format: ADME, organism-based; settings: in vivo
[14] = test system: MOLT-4; experiment: Downregulation of H3K9 dimethylation in human MOLT-4 cells at 1 uM by Western blot analysis; format: functional, cell-based
[15] = AUC (0 to infinity) in ICR mouse at 25 mg/kg, ip; format: ADME, organism-based; design: dose 25 mg/kg, route ip; settings: in vivo
[16] = Drug concentration in C57BL/6 mouse liver at 50 mg/kg, ip measured after 4 hrs; format: ADME, organism-based; settings: read-out: Ct
[17] = Toxicity in C57BL/6 mouse assessed as body weight loss at 20 to 50 mg/kg, ip measured after 48 weeks; format: organism-based; settings: in vivo, 8064 h, dose 20-50 mg/kg
[18] = Drug concentration in C57BL/6 mouse liver at 20 mg/kg, ip measured after 4 hrs; format: ADME, organism-based; settings: read-out: Ct
[19] = test system: HCC; experiment: Antitumor activity against DEN-induced […] HCC tumor in C57BL/6 mouse at 20 to 50 mg/kg, ip measured after 48 weeks; format: functional, organism-based; settings: dose 20-50 mg/kg
[20] = Drug concentration in C57BL/6 mouse plasma at 20 mg/kg, ip measured after 4 hrs; format: ADME, organism-based
[21] = Drug concentration in C57BL/6 mouse plasma at 50 mg/kg, ip measured after 4 hrs; format: ADME, organism-based
[22] = test system: Mus musculus; experiment: In vivo inhibition of G9a in C57BL/6 mouse liver assessed as reduction in H3K9me2 level at 20 to 50 mg/kg, ip measured after 5 days by Westernblot analysis; format: functional, organism-based; settings: dose 20-50 mg/kg, time 5.0 day
[23] = test system: Mus musculus; experiment: In vivo inhibition of G9a in C57BL/6 mouse liver assessed as H3 histone methylation at 20 to 50 mg/kg, ip measured after 5 days by Westernblot analysis; format: functional, organism-based; settings: dose 20-50 mg/kg, time 5.0 day

SMILES	IC50 [1] [nM]	GI50 [2] [nM]	remaining at 0.5 h [3] [%]	remaining at 0.5 h [4] [%]	solubility at 1 h [6] [µM]	GI50 [7] [nM]	also measured
Cc1c(C(=O)NC(CCC2CC2)C(=O)Nc2ccc(C#N)cc2)[nH]c2c1C(=O)CC(C)(C)C2 (racemic)	66.7	278	–	–	–	–	–
Cc1c(C(=O)N[C@@H](CCC2CC2)C(=O)Nc2ccccc2)[nH]c2c1C(=O)CC(C)(C)C2	39.6	–	36.5	7.1	32.4 (≈ 13.7 µg/mL)	61.5	Activity [5]: Active; Papp [8]: 6.35 ×10⁻⁶ cm/s
Cc1c(C(=O)NC(CCC2CC2)C(=O)Nc2ccccc2)[nH]c2c1C(=O)CC(C)(C)C2 (racemic)	–	1790	–	–	–	–	–
CCc1c(C(=O)N[C@@H](CCC2CC2)C(=O)Nc2ccc(C#N)cc2)[nH]c2c1C(=O)CC(C)(C)C2	50	–	51.9	40.5	4 (≈ 1.84 µg/mL)	220	–
COc1cc2c(cc1C1=CCN(C)CCC1)N=C(N)C21CCC1	–	–	–	–	–	–	IC50 [9]: 75.7 nM; IC50 [10]: 12.6 nM
CC(C)c1c(C(=O)N[C@@H](CCC2CC2)C(=O)Nc2ccc(C#N)cc2)[nH]c2c1C(=O)CC(C)(C)C2	55	–	1.8	70.8	3.7 (≈ 1.76 µg/mL)	91.3	–
Cc1c(C(=O)N[C@@H](CCC2CC2)C(=O)Nc2ccc(C#N)cc2)[nH]c2c1C(=O)CC(C)(C)C2	27	21.3	55.5	19.3	13.6 (≈ 6.07 µg/mL)	21.3	Activity [5]: Active; IC50 ([1]; sf9): 27 nM; Papp [8]: 3.12 ×10⁻⁶ cm/s
Cc1ccc(NC(=O)[C@@H](CCC2CC2)NC(=O)c2[nH]c3c(c2C)C(=O)CC(C)(C)C3)cn1	50	–	40.2	38.1	50.8 (≈ 22.2 µg/mL)	176	Papp [8]: 9.64 ×10⁻⁶ cm/s
Cc1c(C(=O)N[C@H](CCC2CC2)C(=O)Nc2ccccc2)[nH]c2c1C(=O)CC(C)(C)C2	2100	1790	–	–	–	–	half-life [11]: 0.58 h; Cmax [12]: 4.14 µM; Tmax [13]: 4 h; Activity [14]: inactive; AUC(0-inf) [15]: 10.3 µM·h
COc1cc2c(NC3CCN(C(C)C)CC3)nc(C3CCCCC3)nc2cc1OCCCN1CCCC1	–	188	89.7	67	> 200	188	permeability [8]: 1.89 10^-6 cm/s
Cc1c(C(=O)N[C@H](CCC2CC2)C(=O)Nc2ccc(C#N)cc2)[nH]c2c1C(=O)CC(C)(C)C2	–	2370	–	–	–	–	concentration at 4 h [16]: 46.9 µM; Activity [17]: Non-Toxic; half-life [11]: 1.4 h; concentration at 4 h [18]: 23.5 µM; Cmax [12]: 42.4 µM; Tmax [13]: 4 h; Activity [19]: Active; concentration at 4 h [20]: 9.6 µM; Activity [14]: inactive; concentration at 4 h [21]: 18.9 µM; Activity [22]: Active; IC50 [9]: 53 nM; inhibition [23]: inactive; IC50 [10]: 27 nM; AUC(0-inf) [15]: 418 µM·h
